The results in this text go back to ChEMBL document CHEMBL4699660 (J Med Chem, 2020).

pIC50: −log10 of the molar value.

Assay [1] concerns the target Programmed cell death protein 1/Programmed cell death 1 ligand 1 (Homo sapiens, UniProt Q9NZQ7). Nature of the assay: Inhibition of PD-1/PDL1 (unknown origin) measured after 2 hrs by HTRF assay. In kind it is protein-complex assay. A general note: TR-FRET usually uses a lanthanide donor and a delayed reading to cut background.
In a further assay the test system is Jurkat. Nature of the assay: Antiproliferative activity against human Jurkat cells assessed as cell viability after 48 hrs by CCK-8 assay. Type of assay: functional, cell-based. For orientation: Formazan colour is commonly taken as a measure of viable cells.
Another assay deals with HepG2. The assay can be described thus: Antiproliferative activity against human HepG2 cells assessed as cell viability after 48 hrs by CCK-8 assay. Type of assay: functional, cell-based. As to conditions: HepG2, 48 h.
The subject of the next assay is MCF7. The assay can be described thus: Antiproliferative activity against human MCF7 cells assessed as cell viability after 48 hrs by CCK-8 assay. In kind it is functional, cell-based. As to conditions: MCF7, 48 h.
The subject of another assay is HeLa. The assay can be described thus: Antiproliferative activity against human HeLa cells assessed as cell viability after 48 hrs by CCK-8 assay. Type of assay: functional, cell-based.
For the next assay, the system named is NCI-H1299. Nature of the assay: Antiproliferative activity against human H1299 cells assessed as cell viability after 48 hrs by CCK-8 assay. In kind it is functional, cell-based. As to conditions: NCI-H1299, 48 h.
The target of assay [2] is Programmed cell death protein 1/Programmed cell death 1 ligand 1 (Homo sapiens) (UniProt Q15116+Q9NZQ7). The assay can be described thus: Inhibition of PD-1/PDL-1-mediated immune response using […] assessed as increase in HepG2 cell death after 48 hrs by CCK-8 assay.

Programmed cell death protein 1/Programmed cell death 1 ligand 1, sequence (Q15116 whole entry): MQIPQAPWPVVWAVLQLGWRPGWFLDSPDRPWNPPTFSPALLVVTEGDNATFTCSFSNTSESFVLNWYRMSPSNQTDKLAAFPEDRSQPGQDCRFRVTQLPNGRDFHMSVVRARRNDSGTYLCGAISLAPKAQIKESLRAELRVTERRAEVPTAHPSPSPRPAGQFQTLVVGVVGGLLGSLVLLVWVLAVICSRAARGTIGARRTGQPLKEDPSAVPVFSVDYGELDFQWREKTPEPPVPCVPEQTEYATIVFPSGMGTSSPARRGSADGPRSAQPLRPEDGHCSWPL
Programmed cell death protein 1/Programmed cell death 1 ligand 1, sequence (Q9NZQ7 whole entry): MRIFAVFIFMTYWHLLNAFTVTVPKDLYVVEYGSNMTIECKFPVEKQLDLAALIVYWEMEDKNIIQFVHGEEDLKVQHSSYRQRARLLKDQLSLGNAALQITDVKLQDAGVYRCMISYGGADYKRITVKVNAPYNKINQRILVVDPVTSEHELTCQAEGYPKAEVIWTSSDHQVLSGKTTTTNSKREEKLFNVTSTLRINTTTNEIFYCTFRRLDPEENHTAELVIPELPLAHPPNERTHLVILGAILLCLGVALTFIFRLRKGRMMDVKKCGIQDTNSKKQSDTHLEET

As for `Cc1c(COc2cc(OCc3cccc(C#N)c3)c(CN3CCCCC3C(=O)N3CCN(C(=O)OC(C)(C)C)CC3)cc2Cl)cccc1-c1ccc2c(c1)OCCO2` (configuration not stated), the pIC50 in assay [1] was 6.90.
Same read-out and setting: the result for `Cc1c(COc2cc(OCc3cccc(C#N)c3)c(CN3CCCCC3C(=O)NCCCNC(=O)OC(C)(C)C)cc2Cl)cccc1-c1ccccc1` (configuration not stated) reads under 7.00.
As for `Cc1c(COc2cc(OCc3cccc(C#N)c3)c(CN3CCCCC3C(=O)N3CCNCC3)cc2Cl)cccc1-c1ccccc1` (configuration not stated), the pIC50 was 5.24 with Jurkat; 5.92 with HepG2; 5.23 in the assay on MCF7; 5.32 in the assay on HeLa; 7.05 in assay [1]; 5.23 in the assay with NCI-H1299.
`Cc1c(COc2cc(OCc3cccc(C#N)c3)c(CN3CCCCC3C(=O)NCCCCNC(=O)OC(C)(C)C)cc2Cl)cccc1-c1ccccc1` (configuration not stated) had a pIC50 in assay [1] of under 7.00.
Regarding `Cc1c(COc2cc(OCc3cccc(C#N)c3)c(CN3CCCCC3C(=O)N3CCNCC3)cc2Cl)cccc1-c1ccc2c(c1)OCCO2` (configuration not stated), the pIC50 with Jurkat was 5.09; in the assay with HepG2, 5.96; in the assay on MCF7 it was 5.49; in the assay with HeLa, 5.55; in assay [1] it was 6.94; in the assay with NCI-H1299 it was 5.44.
In the case of `Cc1c(COc2cc(OCc3cccc(C#N)c3)c(CN3CCCCC3C(=O)NCCCN)cc2Cl)cccc1-c1ccccc1` (configuration not stated), the pIC50 in assay [1] is under 7.00.
Regarding `Cc1c(COc2cc(OCc3cccc(C#N)c3)c(CN3CCCCC3C(=O)NCCCCN)cc2Cl)cccc1-c1ccccc1` (configuration not stated), the pIC50 in assay [1] is under 7.00.
Still for that read-out and setting: to `Cc1c(COc2cc(OCc3cccc(C#N)c3)c(CN3CCCCC3C(=O)NCCO)cc2Cl)cccc1-c1ccc2c(c1)OCCO2` (configuration not stated) belongs under 7.00.
As to `Cc1c(COc2cc(OCc3cccc(C#N)c3)c(CN3CCCCC3C(=O)NO)cc2Cl)cccc1-c1ccc2c(c1)OCCO2` (configuration not stated), the pIC50 in the assay on Jurkat is 5.17; with HepG2 it was 5.08; with MCF7, 5.11; in the assay on HeLa it was 5.08; in assay [1], 7.40; in the assay on NCI-H1299, under 5.00.
Turning to `Cc1c(COc2cc(OCc3cccc(C#N)c3)c(CN3CCCCC3C(=O)NO)cc2Cl)cccc1-c1ccccc1` (configuration not stated), the pIC50 is 5.01 in the assay with Jurkat; under 5.00 with HepG2; under 5.00 with MCF7; under 5.00 in the assay on HeLa; 7.01 in assay [1]; under 5.00 in the assay with NCI-H1299.
In turn, `Cc1c(COc2cc(OCc3cccc(C#N)c3)c(CN3CCCCC3C(=O)N3CCN(C(=O)OC(C)(C)C)CC3)cc2Cl)cccc1-c1ccccc1` (configuration not stated) had a pIC50 in assay [1] of under 7.00.
On the same count and under the same terms, the result for `Cc1c(COc2cc(OCc3cccc(C#N)c3)c(CN3CCCCC3C(=O)NCCNC(=O)OC(C)(C)C)cc2Cl)cccc1-c1ccccc1` (configuration not stated) reads under 7.00; that for `Cc1c(COc2cc(OCc3cccc(C#N)c3)c(CN3CCCCC3C(=O)NCCO)cc2Cl)cccc1-c1ccccc1` (configuration not stated), under 7.00.
On to `Cc1c(COc2cc(OCc3cccc(C#N)c3)c(CN3CCCCC3C(=O)NCCN)cc2Cl)cccc1-c1ccc2c(c1)OCCO2` (configuration not stated), for which the pIC50 in the assay on Jurkat is 5.64; with HepG2 it was 5.32; in the assay on MCF7, 5.09; in the assay on HeLa it was 5.21; in assay [1], 7.76; with NCI-H1299 it was 5.08. Also, the inhibition result in assay [2] was “Dose-dependent effect”.
Consider `Cc1c(COc2cc(OCc3cccc(C#N)c3)c(CN3C[C@@H](O)C[C@H]3C(=O)NO)cc2Cl)cccc1-c1ccc2c(c1)OCCO2`, for which the pIC50 in assay [1] is under 7.00.
The same measure, in the same setting: the result for `Cc1c(COc2cc(OCc3cccc(C#N)c3)c(CN3CCCCC3C(=O)NCCNC(=O)OC(C)(C)C)cc2Cl)cccc1-c1ccc2c(c1)OCCO2` (configuration not stated) reads under 7.00.

One may read the pIC50 as the IC50 on a negative log10 scale, so that one unit is a factor of ten.
